pIC50: −log10 of the molar value.
Molecular target: T1, Histone-lysine N-methyltransferase EHMT2 (Homo sapiens, UniProt Q96KQ7)
T1 sequence (Q96KQ7 whole entry): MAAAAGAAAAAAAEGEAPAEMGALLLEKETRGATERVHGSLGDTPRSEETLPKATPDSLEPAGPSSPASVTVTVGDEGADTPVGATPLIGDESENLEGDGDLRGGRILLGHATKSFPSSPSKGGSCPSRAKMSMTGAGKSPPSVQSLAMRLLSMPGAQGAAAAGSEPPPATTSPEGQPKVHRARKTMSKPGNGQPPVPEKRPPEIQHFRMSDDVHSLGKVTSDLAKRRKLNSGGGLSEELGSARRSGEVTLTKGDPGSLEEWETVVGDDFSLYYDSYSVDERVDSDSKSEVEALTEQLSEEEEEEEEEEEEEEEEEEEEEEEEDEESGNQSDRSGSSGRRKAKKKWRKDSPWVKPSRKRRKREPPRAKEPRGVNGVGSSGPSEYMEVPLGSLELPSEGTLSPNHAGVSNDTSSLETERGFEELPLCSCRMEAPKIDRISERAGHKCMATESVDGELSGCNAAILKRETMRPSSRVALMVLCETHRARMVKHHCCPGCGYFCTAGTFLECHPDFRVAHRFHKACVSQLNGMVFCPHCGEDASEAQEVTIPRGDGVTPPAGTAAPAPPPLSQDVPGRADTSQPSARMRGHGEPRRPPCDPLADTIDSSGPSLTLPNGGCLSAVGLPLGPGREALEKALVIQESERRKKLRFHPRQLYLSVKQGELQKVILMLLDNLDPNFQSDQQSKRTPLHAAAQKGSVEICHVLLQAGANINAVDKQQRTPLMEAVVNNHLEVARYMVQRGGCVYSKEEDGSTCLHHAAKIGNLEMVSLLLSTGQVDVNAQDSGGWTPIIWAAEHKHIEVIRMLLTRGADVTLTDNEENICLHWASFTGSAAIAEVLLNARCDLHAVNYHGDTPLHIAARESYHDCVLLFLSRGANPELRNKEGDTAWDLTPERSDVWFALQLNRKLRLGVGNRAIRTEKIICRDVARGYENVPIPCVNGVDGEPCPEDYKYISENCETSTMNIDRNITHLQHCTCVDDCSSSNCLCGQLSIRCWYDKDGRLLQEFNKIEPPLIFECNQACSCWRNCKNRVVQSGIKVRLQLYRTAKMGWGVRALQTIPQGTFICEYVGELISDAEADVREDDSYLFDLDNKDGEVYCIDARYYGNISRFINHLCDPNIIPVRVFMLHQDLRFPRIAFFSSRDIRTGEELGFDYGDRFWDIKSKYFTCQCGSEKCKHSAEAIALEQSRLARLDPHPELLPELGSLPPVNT
Assay: Inhibition of methyl transferase activity of G9a assessed as inhibition of H3K9 methylation by chemiluminescence based oxygen tunneling assay

| SMILES | pIC50 |
| --- | --- |
| COc1cc2nc(N3CCCN(C)CC3)nc(NC3CCNCC3)c2cc1OC [6,7-Dimethoxy-2-(4-methyl-1,4-diazepan-1-yl)-N-(piperidin-4-yl)quinazolin-4-amine] | < 5.00 |
| COc1cc2nc(N3CCCN(C)CC3)nc(NC3CCOCC3)c2cc1OC [6,7-dimethoxy-2-(4-methyl-1,4-diazepan-1-yl)-N-(tetrahydro-2H-pyran-4-yl)quinazolin-4-amine] | < 5.00 |
